Measurements taken from ChEMBL document CHEMBL1201862, “PubChem BioAssay data set” (2004).
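Following 48 hours of exposure in 96-well plates, responses at five concentrations were used to interpolate endpoints linearly. GI50 is the concentration that inhibits growth by half.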 Active and inactive are the calls of the source. Rule as the data show it: active = GI50 up to about 1.1 µM and inactive = higher.

Columns and labels:
Experiment in all cases: NCI-60 cell line screen, 48 h
786-0 = test system: 786-0
A549 = test system: A549
ACHN = test system: ACHN
COLO 205 = test system: COLO 205
DU-145 = test system: DU-145
EKVX = test system: EKVX
HCC 2998 = test system: HCC 2998
HCT-15 = test system: HCT-15
Hs-578T = test system: Hs-578T
MDA-MB-231 = test system: MDA-MB-231
MDA-N = test system: MDA-N
NCI/ADR-RES = test system: NCI/ADR-RES
OVCAR-5 = test system: OVCAR-5
PC-3 = test system: PC-3
SF-268 = test system: SF-268
SK-OV-3 = test system: SK-OV-3
SN12C = test system: SN12C
SNB-19 = test system: SNB-19
U-251 = test system: U-251
HL-60 = test system: HL-60

Compound | GI50 (786-0) | GI50 (A549) | GI50 (ACHN) | GI50 (COLO 205) | GI50 (DU-145) | GI50 (EKVX) | GI50 (HCC 2998) | GI50 (HCT-15) | GI50 (Hs-578T) | GI50 (MDA-MB-231) | GI50 (MDA-N) | GI50 (NCI/ADR-RES) | GI50 (OVCAR-5) | GI50 (PC-3) | GI50 (SF-268) | GI50 (SK-OV-3) | GI50 (SN12C) | GI50 (SNB-19) | GI50 (U-251) | GI50 (HL-60)
O=C1CCC(NC(=O)c2ccccc2)C(=O)N1 (stereo unspecified) | > 100 µM (inactive) | > 100 µM (inactive) | > 100 µM (inactive) | > 100 µM (inactive) | > 100 µM (inactive) | > 100 µM (inactive) | > 100 µM (inactive) | > 100 µM | > 100 µM (inactive) | > 100 µM (inactive) | > 100 µM (inactive) | > 100 µM (inactive) | > 100 µM (inactive) | > 100 µM (inactive) | > 100 µM (inactive) | > 100 µM (inactive) | > 100 µM (inactive) | > 100 µM (inactive) | > 100 µM (inactive) | 
Cn1c2c(c3ccccc31)CCN(CCCCN1CCN(c3ccccc3)CC1)C2=O | 29.6 µM (inactive) | 97.3 µM (inactive) | > 100 µM (inactive) | 8.51 µM (inactive) | 35.9 µM (inactive) | > 38.5 µM (inactive) | 5.62 µM (inactive) | 17.2 µM | 12.4 µM (inactive) | > 10 µM (inactive) | 21.6 µM (inactive) |  | 19.6 µM (inactive) | 11.7 µM (inactive) | 56 µM (inactive) | > 100 µM (inactive) | > 65.6 µM (inactive) | 75.9 µM (inactive) | 34.8 µM (inactive) | 7.78 µM (inactive)
Cc1c(-c2ccccc2)[nH]c2cc(Cl)ccc2c1=O |  | 1.96 µM (inactive) | 55.8 µM (inactive) |  | > 100 µM (inactive) | > 100 µM (inactive) | > 100 µM (inactive) | 17.2 µM | 14.8 µM (inactive) | 70.8 µM (inactive) | 10.2 µM (inactive) |  | > 100 µM (inactive) |  | 33.5 µM (inactive) | 39.4 µM (inactive) | > 100 µM (inactive) | 52.8 µM (inactive) | 25.8 µM (inactive) | 23.1 µM (inactive)
CN1C(C)(C)CC(=O)C(Br)C1(C)C (stereo unspecified) | > 100 µM (inactive) | > 100 µM (inactive) | > 100 µM (inactive) | > 100 µM (inactive) | > 100 µM (inactive) | > 100 µM (inactive) |  | > 100 µM | > 100 µM (inactive) |  | > 100 µM (inactive) | > 100 µM (inactive) | > 100 µM (inactive) | > 100 µM (inactive) | > 100 µM (inactive) | > 100 µM (inactive) | > 100 µM (inactive) | > 100 µM (inactive) | > 100 µM (inactive) | > 100 µM (inactive)
Cn1c2ccc(C3=NCCN3)cc2c2cc(C3=NCCN3)ccc21 | 38.7 µM (inactive) | 46.1 µM (inactive) | 37.9 µM (inactive) | 0.724 µM (active) | 26.4 µM (inactive) | 17 µM (inactive) |  | > 100 µM | 10.7 µM (inactive) | 41.2 µM (inactive) | 53.1 µM (inactive) | > 100 µM (inactive) | 38.4 µM (inactive) | 34.3 µM (inactive) | 0.0463 µM (active) | 44.1 µM (inactive) | 6.31 µM (inactive) | 42.8 µM (inactive) | 14.9 µM (inactive) | < 0.01 µM (active)
NC12Oc3cc(O)cc(O)c3C1(c1ccc(Cl)cc1)c1c(O)cc(O)cc1O2 (stereo unspecified) | 61.8 µM (inactive) | > 100 µM (inactive) | > 100 µM (inactive) | 97.5 µM (inactive) | > 100 µM (inactive) | 71.8 µM (inactive) | > 100 µM (inactive) | > 100 µM | 28.8 µM (inactive) |  | 39.9 µM (inactive) | > 100 µM (inactive) | > 100 µM (inactive) | 43 µM (inactive) | 69 µM (inactive) | > 100 µM (inactive) | 21.4 µM (inactive) | 73.1 µM (inactive) | 65.8 µM (inactive) | 27.4 µM (inactive)
CCOC(=O)/C=C/c1nc(C#N)c(N)o1 | > 100 µM (inactive) | > 100 µM (inactive) | > 100 µM (inactive) |  | > 100 µM (inactive) | > 100 µM (inactive) |  | > 100 µM | > 100 µM (inactive) | > 100 µM (inactive) | > 100 µM (inactive) |  | > 100 µM (inactive) | > 100 µM (inactive) | > 100 µM (inactive) | > 100 µM (inactive) | > 100 µM (inactive) | > 100 µM (inactive) | > 100 µM (inactive) | > 100 µM (inactive)
Cc1cc(C)n(C(=O)C(C)Sc2nnc(SC(C)C(=O)n3nc(C)cc3C)s2)n1 (stereo unspecified) | > 100 µM (inactive) | > 100 µM (inactive) | > 100 µM (inactive) | > 100 µM (inactive) | > 100 µM (inactive) | > 100 µM (inactive) | > 100 µM (inactive) | > 100 µM | > 100 µM (inactive) | > 100 µM (inactive) | > 100 µM (inactive) | > 100 µM (inactive) | > 100 µM (inactive) | > 100 µM (inactive) | > 100 µM (inactive) | > 100 µM (inactive) |  | > 100 µM (inactive) | > 100 µM (inactive) | > 100 µM (inactive)
